According to article PMC9413201, “Covalent Proteomimetic Inhibitor of the Bacterial FtsQB Divisome Complex” (Journal of the American Chemical Society, 2022):
Numbered stars: 1 amine (or outer) side, 2 acyl side, 3 side chain; on linkers, the order of the positions; unused ones are H or OH. Bridge positions count the residues as written; N and C are the ends. Square brackets hold non-standard residues; d marks the D form. Peptide text beside a SMILES is read from it. * marks the point of attachment. X1 = O=C([C@H](CCCCCC=[*:3])N[*:1])[*:2]; Nle = CCCC[C@H](N)C(=O)O; BrAc = O=C(CBr)*

Assays:
FtsQ(50–276) = FtsQ(50–276) (Escherichia coli, UniProt P06136); experiment: LC/MS analysis of modified FtsQ(50–276); assay type: biochemical, E. coli; set-up: pET16b FtsQ(50˗276), a His6 fusion; made in house; host or cells: Escherichia coli BL21 DE3; details: HPLC/MS, deconvolution; expected for reaction with 1 equiv ΔMW = 2122 g/mol; 37 °C, NH4HCO3 buffer pH 7.6
Experimental: 1.6 LC/MS-analysis of modified FtsQ(50˗276)
To determine the reactivity of 17fα, FtsQ(50˗276) was diluted to a concentration of 100 μM in 20 mM NH4HCO3 buffer (pH 7.6, 150 mM NaCl). The peptide 17fα was diluted to a concentration of 250 μM in the same buffer.
Equal volumes of both solutions were mixed and incubated at 37 °C for the given time period (1 h or 3 h). The reaction was quenched by 4-fold dilution in ACN/H2O (1:1) + 0.1 % TFA.
20 μL of the resulting solution were injected and analysed by analytical reverse-phase HPLC (1260 Infinity II, Agilent Technology; flow rate of 0.3 mL·min-1, A: water with 0.1% FA, B: 80% iPrOH, 10% ACN, 10% H2O with 0.1% FA; AdvanceBio RP-mAB C4 column, 2.1×50 mm, 3.5 µm particle size) using a 10 min gradient (20-80% B) coupled to a mass spectrometer (Infinity Lab LC/MSD XT, Agilent Technology) using API-ES (MSD signal settings: Polarity: Positive; scan mass range: 500-3000; Fragmentor 70). Analytical HPLC chromatograms at 210 nm and MS spectra, masses and m/z ratios are shown in the appendix – analytics part. […]
(§1) Morphology assays were executed to assess the physiological change of E.coli cells upon exposure to different peptides. All steps in this protocol were performed under sterile conditions. For each assay, 20 mL of fresh MOPS medium was prepared (40 mM MOPS, 4 mM tricine, 0.01 mM FeSO-4, 9.5 mM NH4Cl, 0.276 mM K2SO4, 0.5

[1] = test system: E. coli lptD4213 (imp) cells; experiment: Microscopy and morphology assay (cell length); assay type: cell-based; details: 17fα 100 μM
Experimental: 1.8 Microscopy and morphology assay
as §1, with “0.5 […]” for “0.5”
The next day, the overnight culture […]
was diluted to an OD600 of 0.1. […]
min, after which the supernatant was discarded.
The frozen samples were thawed and 3 μL of […]
morphology of the cells was investigated. […]
accessed on February 2020).
The FtsQ(50˗276) stock solution was diluted to
NH4HCO3 (pH 7.6), 150 mM NaCl).
The gel was placed in the container
Colloidal Coomassie staining solution […]
was washed 3x for 30 min with water.
The gel pieces were washed with 200 μL water by vortex mixing for 30 s. Then the water was discarded. The gel pieces were then washed with […]
discarded and the procedure repeated once.
The supernatants were discarded and 200 μL of 100 %
ACN added, mixed and incubated for 30 s. […] They were then

E. coli lptD4213 (imp) = experiment: Growth assay (OD600) with outer membrane-permeable E. coli lptD4213 (imp); assay type: cell-based
Experimental: Growth assays were performed to assess the in vitro cytotoxicity of peptides. The experiments were executed under sterile conditions. For each assay, 20 mL of fresh MOPS medium was prepared (Teknova Inc MOPS EZ Rich Defined Medium Kit | M2105: 40 mM MOPS, 4 mM Tricine, 0.01 mM FeSO4, 9.5 mM NH4Cl, 0.276 mM […]
MOPS medium with Streptomycin (30 μg/mL) and incubated overnight at 200 rpm and 37°C. The next day, the […]
peptide stocks in DMSO were diluted to four times the desired highest concentration to be measured in MOPS medium. The peptide dilutions were vortexed and briefly centrifuged. 50 μL of MOPS medium was added to each well of a Corning® 96-well Clear Flat Bottom Polystyrene TC-treated Microplate. A twofold dilution series was performed by adding 50 μL of the diluted peptide to the top row, mixing it and taking 50 μL to the next row. At each step the solution was resuspended five times. This was repeated until the last row which was skipped in order to obtain a reference measurement. After 2-3 h, the E.coli lptD4213 (imp) pre-culture was diluted to an OD600 of 0.00005. Then, 50 μL of diluted culture were added to each well and the plate sealed using a lid and parafilm. The OD600 was measured every 15 min over a period of more than 20 h (continuously shaking, 37°C) using a BioTek Synergy H1 plate reader. The obtained data were analyzed and relative growth curves plotted with GraphPad Prism 8. The assays were performed as technical triplicates. A single overnight pre-culture was used to prepare the diluted MOPS culture used in the growth assay. […]

FtsQ(50–276), sequence (P06136 50-276): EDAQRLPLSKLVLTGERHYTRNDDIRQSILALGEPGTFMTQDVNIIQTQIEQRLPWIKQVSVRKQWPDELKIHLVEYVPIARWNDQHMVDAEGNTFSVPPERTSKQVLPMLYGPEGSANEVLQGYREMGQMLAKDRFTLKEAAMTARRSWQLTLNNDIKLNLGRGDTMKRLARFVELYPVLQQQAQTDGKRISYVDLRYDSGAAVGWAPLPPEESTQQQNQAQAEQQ

With `CCCC[C@@H]1NC(=O)[C@H](CO)NC(=O)[C@H](CC(C)C)NC(=O)[C@H](CCC(=O)O)NC(=O)[C@H](CC(N)=O)NC(=O)[C@@H](NC(=O)[C@H](C)NC(C)=O)CCCCCC=CCCCCC[C@@H](C(=O)N[C@@H](CCCCNC(=O)CBr)C(=O)N[C@@H](Cc2ccccc2)C(=O)N[C@@H](Cc2ccc(O)cc2)C(=O)N[C@@H](CCCNC(=N)N)C(=O)N[C@@H](CC(C)C)C(N)=O)NC(=O)CNC(=O)[C@@H]2CCCN2C(=O)[C@H](CCCNC(=N)N)NC(=O)[C@H]([C@@H](C)O)NC1=O` [17fα] (Ac-A[X1]NELS[Nle]TRPG[X1]K(BrAc)FYRL-NH2; staple 2-12) the “ΔMW of FtsQ(50–276) after treatment (obtained mass difference)” value (FtsQ(50–276)) was 2124 g/mol, the “cell length median (1h)” value ([1]; 1 h) was 4.7 μm and the “cell length mean (1h)” value ([1]; 1 h, phase contrast microscopy, ImageJ/ObjectJ) was 5.3 μm. The “cell length mean (6h)” value ([1]; 6 h) was 12.4 μm, the “cell length median (6h)” value ([1]; 6 h) was 11.3 μm and the “lowest concentration with inhibitory effect on growth” value (E. coli lptD4213 (imp); concentration-dependent effect on growth after 15 h, highest tested concentration 100 μM, n = 3 replicates) was 12.5 µM. For the same compound, the “effect on bacterial growth (OD600)” value (E. coli lptD4213 (imp); inhibitor c = 50 μM, OD600 every 15 min over 22 h, n = 3 technical replicates) was “prevents bacterial growth”.
